The source of these data is patent US5736394A, “Cellular uptake of modified peptides” (Boston Biomedical Research Institute, priority 1996, dated 1998).

One data set deals with HL-60 cells. Kind of data set: Cellular uptake of [3H]Bz-peptides / [3H]BBA by HL60 cells (silicone oil centrifugation, cell pellets counted). On the procedure:
Initial experiments were designed to determine whether the Bz-modified peptide could cross cellular membranes. The methods employed for these studies are given briefly. First, 2×10^6 HL-60 cells/mL were incubated in serum free medium at 37° C. together with either [^3 H]-benzoylbenzoic acid ([^3 H]BBA) or the [^3 H]Bz-peptideover a 45 min time course. Aliquots (0.5 mL) of the cell suspension were removed at the times shown and separated from the aqueous medium by centrifugation through a silicone oil barrier. The cell pellets in the oil layer were counted.
The volume of an average HL60 cell can be estimated as 4.2×10^-6 μL. Thus, the pellet volume occupied by a […] suspension of 10^6 cells is […].

For data set [1], the system named is HL60 cells. Kind of data set: Inhibition of HL60 cell proliferation ([3H]TdR incorporation at 24 h) after photolysis of intracellular Bz-peptide at 365 nm. The format is cell-based, human. The following applies: for inhibition of DNA synthesis / cytostatic response: irradiation immediately after plating, FIG. 2A. The text has this: Experiments were designed to determine whether, after admission of the target-specific Bz-peptide molecules into proliferating cells, their photolysis in situ would induce a cytostatic response. Such a response would implicate the irreversible inhibition of ras-prenylating enzymes. […] It is important to note that, regardless of treatment, Trypan blue-assessed viability remained above 90% under the conditions employed for all experiments shown in FIG. 2A,B.
Two fundamental variations were performed. For FIG. 2A, cells were incubated in serum-free medium in the presence of a Bz-peptide, mevinolin, or, as control, with the DMSO delivery vehicle alone, for 15 min at room temp., after which fetal bovine serum was added to 10% (v/v) followed by plating in triplicate at 0.5 mL/well. These plates were immediately irradiated at 365 nm for 15 min to excite the intracellular Bz photophore, then placed in the incubator at 37° C. for 24 h. For FIG. 2B, the same procedure was followed except that, after serum replenishment and plating, cells were first incubated at 37° C. for 1 h, then removed from the incubator, irradiated for 15 min, and returned to incubation for 24 h. The 1 h incubation prior to irradiation was performed to assess, indirectly, the potential for intracellular destruction (or other means of depletion) of the Bz-peptides. At 24 h after serum replenishment, all cells were pulse-labeled with [^3 H]TdR to record the effect of intracellular Bz-peptide photolysis (as well as of mevinolin treatment, the effects of which have been well documented) on DNA synthesis and, thereby, on cell proliferation.

The subject of data set [2] is HL60 cells. In words: HL60 cell proliferation ([3H]TdR incorporation into DNA) after 18 h incubation, plus or minus irradiation. The format is cell-based, human. The method, then: A set of experiments were designed to assess the effects of Bz-peptides on ras-mediated signaling of cell proliferation, under conditions where incubations of cells, post peptide addition, were shorter (18 h) than that found optimal for their population doubling (~24 h). Experiments were intended to reveal early differences in the relative stability of the Bz-peptides, as judged by their effects on inhibition of cell proliferation, plus or minus irradiation.
HL60 cells were exposed to Bz-ACVIM SEQ ID NO: 4 (FPTase-specific), Bz-ACVIL SEQ ID NO: 5 (GGPTase-I-specific), the benzophenone photophore (BBA), mevinolin (proliferation inhibition control), or the DMSO vehicle alone, plus or minus irradiation. After incubation for 18 h at 37° C., irradiated and non-irradiated cultures were assayed for [^3 H]TdR incorporation into DNA (a measure of proliferation).

Where [3] appears, read: 10 μM, 1 h delay at 37° C. before photolysis, 24 h, FIG. 2B.

Where no end group is shown, it is not given here. The star is where a group is joined. Benzoyl(4-benzoyl) = O=C(c1ccccc1)c1ccc(C(=O)*)cc1 Where only a bound is given, the exact number is not on record here.

As for APRTPGGRR, the intracellular accumulation result in the data set with HL-60 cells (48 μM, HL60 cells, lowest trace in FIG. 1B) is on record as “no evidence for intracellular accumulation”.

In the case of “Bz-ACVIM: Bz-derivatized pentapeptide; benzophenone moiety amide-coupled to the N-terminus of ACVIM; FPTase-specific photoaffinity inhibitor ({Benzoyl(4-benzoyl)}-ACVIM)”, in the data set with HL60 cells [1] (setting [3]), the inhibitory effect result is “much lower inhibitory effect”. For the same compound, the “inhibition of DNA synthesis” value in the data set on HL60 cells [1] (10 μM, 24 h) is on record as 75-80%. Besides, the cytostatic effect result in the data set on HL60 cells [1] (100 μM, 1 h delay at 37° C. before photolysis, 24 h, FIG. 2B) was “remained at least as powerful as in FIG. 2A”. Moreover, the “inhibition of DNA synthesis” value in the data set with HL60 cells [1] (100 μM, 24 h) is reported as 75-80%. In the data set with HL-60 cells, the “influx and equilibration into cells” value is reported as “extremely rapid”; the “time to reach maximum levels of influx and equilibration” value was not above 15 min.

Consider mevinolin [reference compound], for which, in the data set on HL60 cells [1] (10 μM, FIGS. 2A & 2B, whether irradiation was delayed for 1 h or not), the growth inhibition entry is “apparent”. In addition, the “relative extent of inhibition of cell proliferation” value with HL60 cells [2] (whether or not cells were irradiated, 2nd bar both panels) is ~ 50%.

With `O=C(O)c1ccc(C(=O)c2ccccc2)cc1` [BBA, 4-benzoylbenzoic acid], the “effect on the cell's capacity for proliferation” value with HL60 cells [2] (whether cells were irradiated or not, 6th bar both panels) is listed as “no effect”.

“Bz-ACVIL: Bz-derivatized pentapeptide ACVIL; GGPTase-I-specific photoaffinity inhibitor ({Benzoyl(4-benzoyl)}-ACVIL)”: the inhibitory effect entry in the data set with HL60 cells [1] (setting [3]) is on record as “ineffective”. Further, the cytostatic response entry in the data set with HL60 cells [1] (10 μM, 24 h) is “did not do so”; in the data set with HL60 cells [1] (100 μM, 24 h), “clear cytostatic response”. In addition, the “loss of the inhibitory capacity manifest in FIG. 2A” value in the data set on HL60 cells [1] (100 μM, 1 h delay before photolysis, FIG. 2B relative to FIG. 2A) was “about 60%”. Further, the “influx and equilibration into cells” value in the data set with HL-60 cells is on record as “behaved similarly”.
